# Laboratory results taken from article PMC10745659, “Chemical Constituents and α-Glucosidase Inhibitory, Antioxidant and Hepatoprotective Activities of Ampelopsis grossedentata” (Molecules, 2023).
# How the values were obtained:
# α-glucosidase = α-glucosidase (Saccharomyces cerevisiae, UniProt P53341); assay: α-glucosidase inhibitory assay (p-NPG substrate); format: biochemical
# Description: The α-glucosidase inhibitory activities of isolated compounds were evaluated by using a method previously described, but with minor modifications [34]. […] Briefly, 98 μL of PBS (0.1 M, pH 6.8) was added to each well. Then, 2 μL of different concentrations of sample solutions and 25 μL of α-glucosidase solution (0.25 U/mL) were added. After shaking and mixing slightly, the 96-well plate was placed in a 37 °C constant-temperature incubator and incubated for 20 min. Next, 25 μL of p-NPG (4 mM) was added to the plate to initiate the reaction, and it was further incubated in a 37 °C constant-temperature incubator for 15 min. Then, 50 μL of Na2CO3 (0.2 M) solution was quickly added to each well to terminate the reaction. The absorbance was measured at 405 nm using a microplate reader, and the results were obtained from a minimum of three independent experiments.
# [1] = DPPH free radical scavenging assay; conditions: mean ± SD, n = 4; ascorbic acid positive control
# Description: The DPPH free radical scavenging capacity of isolated compounds was determined according to a modified method. […] All isolated compounds and positive drug were dissolved and diluted in DMSO and DPPH (2,2-Diphenyl-1-picrylhydrazyl) was dissolved in anhydrous ethanol. Briefly, 190 μL of a working solution of DPPH (0.2 mM) was added to each well. Then, 10 μL of a sample solution of different concentrations (1.6, 1.2, 0.8, 0.4, 0.2, and 0.1 mM) was added, mixed well, and left to incubate in the dark at room temperature for 60 min. After that, the absorbance values of each well were measured at 517 nm using a microplate reader and the results were obtained from a minimum of three independent experiments. Ascorbic acid was used as the positive control. DMSO was used to replace the sample solution as a blank and absolute ethanol was used to replace the DPPH solution as a control.
# The percentage free radical scavenging rate (%) of each test sample for DPPH was calculated as:Free radical scavenging rate (%) = [Ablank − (Asample − Acontral)] ÷ Ablank × 100%
# [2] = ABTS radical cation scavenging assay; conditions: mean ± SD, n = 4; ascorbic acid positive control
# Description: The ABTS free radical scavenging capacity of all isolated compounds was measured, the procedure followed a method with minor modifications. […] Equal volumes of ABTS (2,2′-azinobis(3-ethylbenzthiazoline-6-sulphonic acid)) solution (7 mM) and potassium persulfate solution (2.45 mM) were mixed evenly and left to react at room temperature for 12 h in the dark to obtain ABTS radical cation. The mixture was then diluted with anhydrous methanol to achieve an absorbance value of about 0.7 ± 0.02 units at 405 nm. Then, 190 μL of ABTS working solution was added to each well, followed by 10 μL samples of varying concentrations (0.8, 0.4, 0.2, 0.1, 0.05, 0.025, 0.0125, and 0.00625 mM) that were dissolved and diluted with DMSO. After mixing well, the samples were incubated at room temperature for 6 min away from light. The subsequent experimental method is basically consistent with the DPPH assay, the only difference is that ABTS assay detects the absorbance value at 405 nm.
# The percentage radical cation scavenging rate (%) of each test sample for ABTS was calculated as follows:Radical cation scavenging rate (%) = [Ablank − (Asample − Acontral)] ÷ Ablank × 100%
# The IC50 values were calculated by using GraphPad Prism 9.0 software.
# [3] = FRAP assay (total antioxidant capacity); conditions: for FRAP Assay: Fe2+ concentration equivalent, sample solution 0.68 mM, mean ± SD, n = 4
# Description: The total antioxidant capacity of the samples was measured by the FRAP (ferric reducing ability of plasma) assay, with slight modifications. The acetate buffer (0.3 M, pH 3.6), TPTZ (2,4,6-tris(2-pyridyl)-S-triazine) solution (10 mM) in 40 mM HCl and ferric chloride aqueous solution (10 mM) were uniformly mixed at a volume ratio of 7:1:1 to obtain the FRAP working solution. FRAP working solution was preheated for 10 min in a constant temperature incubator at 37 °C before use. […] Then, 180 μL of FRAP working solution was added to each well, followed by 6 μL of sample solution (0.68 mM), and finally 18 μL of distilled water. Then, the mixture was stirred well and left to react at room temperature for 10 min. The absorbance values of each well were measured at 593 nm using a microplate reader and the results were obtained from at least three independent experiments. The sample solution was replaced with DMSO as a blank solution and ascorbic acid was used as a positive control. Different concentrations of FeSO4·7H2O (0.075–0.00078 μmol/mL) were used to establish the standard curve. The antioxidant capacity of the sample was expressed as the Fe^2+ concentration (μmol/mL) required to achieve the same absorbance change value. The final result was calculated by GraphPad Prism 9.0 software and presented as mean ± standard deviation (SD) of μmol Fe^2+ per milliliter.
# HepG2 cells = assay: Hepatoprotective activity, APAP-induced HepG2 cell injury model (CCK-8); format: cell-based; conditions: for viability at 20 µM: Homo sapiens, 20 μM compound, APAP 6 mM, 48 h, HepG2, APAP model 68.24 ± 1.34%, n = 3, mean ± SD; for hepatoprotective activity (in words): 20 μM, APAP-induced HepG2 cell injury
# Description: All these parameters were higher than in the preparation of cell viability positive control of 83.01 ± 0.82%.
# HepG2 cells were maintained in DMEM medium supplemented with 10% fetal bovine serum, 100 U/mL penicillin G, and 100 μg/mL streptomycin. The cells were seeded in culture flasks and placed in a 5% CO2 incubator at 37 °C for routine cultivation. The hepatoprotective activities of the isolated samples were tested according to the modified method. To evaluate the effect of test samples on cell viability, a CCK-8 assay was performed. The experiment was conducted in 96-well plates, and 100 μL of HepG2 cells in logarithmic growth phase (8 × 10^5 cells/mL) were seeded in each well and cultured for 24 h. After that, samples (final concentration of 20 μM) and acetaminophen (APAP, final concentration of 6 mM) were added at one time to incubate for another 48 h. Then, 10 μL CCK-8 was added to each well and incubated for 1 h, followed by measuring the absorbance at a wavelength of 450 nm using a microplate reader.
# Chain of α-glucosidase (P53341 whole entry): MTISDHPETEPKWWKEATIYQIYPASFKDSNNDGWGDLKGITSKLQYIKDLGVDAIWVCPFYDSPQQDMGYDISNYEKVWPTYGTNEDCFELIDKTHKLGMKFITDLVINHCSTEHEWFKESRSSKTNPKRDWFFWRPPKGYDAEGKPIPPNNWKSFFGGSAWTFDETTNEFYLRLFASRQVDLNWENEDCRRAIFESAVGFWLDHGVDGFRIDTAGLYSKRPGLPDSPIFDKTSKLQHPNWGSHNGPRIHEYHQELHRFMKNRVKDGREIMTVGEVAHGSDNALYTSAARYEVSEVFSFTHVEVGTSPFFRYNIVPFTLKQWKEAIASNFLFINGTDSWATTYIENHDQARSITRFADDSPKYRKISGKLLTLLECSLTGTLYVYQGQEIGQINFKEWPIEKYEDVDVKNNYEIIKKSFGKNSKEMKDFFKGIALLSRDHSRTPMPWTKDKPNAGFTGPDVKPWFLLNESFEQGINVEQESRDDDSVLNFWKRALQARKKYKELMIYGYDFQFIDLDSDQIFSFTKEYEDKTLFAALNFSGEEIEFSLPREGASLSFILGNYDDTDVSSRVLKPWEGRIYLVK
Molecule,IC50 [1] [µM],IC50 [2] [µM],"IC50 (α-glucosidase; mean ± SD, n = 4, acarbose positive control) [µM]",α-glucosidase inhibition (in words) (α-glucosidase),FRAP Assay [3] [µmol/mL],viability at 20 µM (HepG2 cells) [%],FRAP value [3] [µmol/mL],hepatoprotective activity (in words) (HepG2 cells)
"O=c1c(O)c(-c2ccc(O)cc2)oc2cc(O)cc(O)c12 [Compound 7, Kaempferol]",> 80,19.9 ± 0.46,–,–,0.85 ± 0.01,87.08 ± 0.6,–,–
"O=C(O[C@H]1C(=O)c2c(cc(O)c(O)c2O)O[C@@H]1c1cc(O)c(O)c(O)c1)c1cc(O)c(O)c(O)c1 [Compound 1, Meichasu A]",32.52 ± 0.16,4.43 ± 0.02,–,–,1.70 ± 0.00,84.93 ± 0.58,–,–
lunularin [Compound 9],> 80,> 20,9.42 ± 0.51,–,0.09 ± 0.00,–,–,–
Myricitrin [Compound 13],35.03 ± 0.28,6.88 ± 0.13,–,minimally or not,1.69 ± 0.02,–,–,–
"O=C1C[C@@H](c2ccc(O)cc2)Oc2cc(O)cc(O)c21 [Compound 6, Naringenin]",> 80,> 20,–,–,0.07 ± 0.00,83.7 ± 0.67,–,–
"O=c1c(O)c(-c2cc(O)c(O)c(O)c2)oc2cc(O)cc(O)c12 [Compound 5, Myricetin]",29.8 ± 0.59,3.39 ± 0.07,–,–,1.72 ± 0.01,–,–,moderate hepatoprotective activities
"C[C@@H]1O[C@@H](Oc2c(-c3ccc(O)c(O)c3)oc3cc(O)cc(O)c3c2=O)[C@H](O)[C@H](O)[C@H]1O [Compound 18, Quercitrin]",63.5 ± 0.97,9.96 ± 0.16,–,minimally or not,1.35 ± 0.02,–,–,essentially inactive
"COC(=O)c1cc(OC)c2c(c1-c1c(CO)cc(OC)c3c1OCO3)OCO2 [bicyclol, reference compound]",–,–,–,–,–,83.01 ± 0.82,–,–
"C[C@@H]1O[C@@H](Oc2c(-c3ccc(O)c(O)c3)oc3c(O)c(O)c(O)c(O)c3c2=O)[C@H](O)[C@H](O)[C@H]1O [Compound 2, Meichasu B]",44.4 ± 0.63,6.73 ± 0.03,–,–,1.96 ± 0.01,88.46 ± 0.63,–,–
"O=c1c(O)c(-c2ccc(O)c(O)c2)oc2cc(O)cc(O)c12 [Compound 4, Quercetin]",25.5 ± 0.63,2.76 ± 0.04,–,–,2.67 ± 0.01,84.9 ± 1.21,–,–
"O=C1c2c(O)cc(O)cc2O[C@H](c2cc(O)c(O)c(O)c2)[C@H]1O [Compound 3, (2R,3R)-Dihydromyricetin]",28.3 ± 0.38,5.91 ± 0.11,–,–,1.71 ± 0.01,–,–,moderate hepatoprotective activities
"O=C(O)c1c(O)cccc1CCc1ccc(O)cc1 [Compound 8, lunularic acid]",> 80,> 20,–,–,0.13 ± 0.01,–,–,–

# Continued, in another order:
IC50 [1] [µM],IC50 [2] [µM],"IC50 (α-glucosidase; mean ± SD, n = 4, acarbose positive control) [µM]",Molecule,α-glucosidase inhibition (in words) (α-glucosidase),FRAP Assay [3] [µmol/mL],viability at 20 µM (HepG2 cells) [%],FRAP value [3] [µmol/mL],hepatoprotective activity (in words) (HepG2 cells)
> 80,> 20,–,"O=C(CCc1ccc(O)cc1)c1c(O)cc(O)cc1O[C@@H]1O[C@H](CO)[C@@H](O)[C@H](O)[C@H]1O [Compound 15, Phloridzin]",minimally or not,0.17 ± 0.01,–,–,–
> 80,> 20,–,"O=c1c(O)coc2cc(O)cc(O)c12 [Compound 11, 3,5,7-Trihydroxychromone]",–,0.15 ± 0.00,–,–,–
17.3 ± 0.31,2.19 ± 0.01,–,"O=C(O[C@H]1C(=O)c2c(O)cc(O)cc2O[C@@H]1c1cc(O)c(O)c(O)c1)c1cc(O)c(O)c(O)c1 [Compound 19, (2R,3R)-3,4-Dihydro-5,7-dihydroxy-4-oxo-2-(3,4,5-trihydroxyphenyl)-2H-1-benzopyran-3-yl 3,4,5-trihydroxybenzoate]",–,2.79 ± 0.01,–,2.79,–
> 80,> 20,–,"CC(C)CC(=O)c1c(O)cc(O)cc1O[C@@H]1O[C@H](CO)[C@@H](O)[C@H](O)[C@H]1O [Compound 16, 2-O-[1-(3-Methylbutyryl)phloroglucin-ol]-β-D-glucopyranoside]",–,0.24 ± 0.01,–,–,–
43.1 ± 0.94,10.2 ± 0.13,–,"O=C1CC(c2cc(O)c(O)c(O)c2)Oc2cc(O)cc(O)c21 (stereo not shown) [Compound 17, 5,7,3′,4′,5′-Pentahydroxy flavanone]",–,1.18 ± 0.01,–,–,–
77.9 ± 0.87,19 ± 0.31,–,"O=C1O[C@H]([C@@H](O)CO)C(O)=C1O [ascorbic acid, reference compound]",–,0.57 ± 0.01,–,–,–
43.5 ± 0.36,5.01 ± 0.11,–,"O=C1c2c(O)cc(O)cc2O[C@@H](c2cc(O)c(O)c(O)c2)[C@@H]1O [Compound 10, (2S,3S)-Dihydromyricetin]",–,1.43 ± 0.01,–,–,–
> 80,> 20,–,"C[C@@H]1O[C@@H](Oc2c(-c3ccc(O)cc3)oc3cc(O)cc(O)c3c2=O)[C@H](O)[C@H](O)[C@H]1O [Compound 14, Afzelin]",–,0.07 ± 0.00,–,–,essentially inactive
39.21 ± 0.18,7.36 ± 0.08,–,"O=C1c2c(O)cc(O)cc2OC(c2ccc(O)c(O)c2)C1O (stereo not shown) [Compound 12, Taxifolin]",–,1.32 ± 0.01,85.4 ± 1.22,–,–
